Non-standard residues stand in square brackets, D forms with d. Residues, ends and D or L forms follow the SMILES beside them. Dopa = N[C@@H](Cc1ccc(O)c(O)c1)C(=O)O
Columns and labels:
[1] = target: T1, Solute carrier family 15 member 1 (Homo sapiens) (UniProt P46059); assay: TP_TRANSPORTER: uptake in Xenopus laevis oocytes; assay type: functional, cell-based; conditions: Oocyte
T1 sequence (whole entry): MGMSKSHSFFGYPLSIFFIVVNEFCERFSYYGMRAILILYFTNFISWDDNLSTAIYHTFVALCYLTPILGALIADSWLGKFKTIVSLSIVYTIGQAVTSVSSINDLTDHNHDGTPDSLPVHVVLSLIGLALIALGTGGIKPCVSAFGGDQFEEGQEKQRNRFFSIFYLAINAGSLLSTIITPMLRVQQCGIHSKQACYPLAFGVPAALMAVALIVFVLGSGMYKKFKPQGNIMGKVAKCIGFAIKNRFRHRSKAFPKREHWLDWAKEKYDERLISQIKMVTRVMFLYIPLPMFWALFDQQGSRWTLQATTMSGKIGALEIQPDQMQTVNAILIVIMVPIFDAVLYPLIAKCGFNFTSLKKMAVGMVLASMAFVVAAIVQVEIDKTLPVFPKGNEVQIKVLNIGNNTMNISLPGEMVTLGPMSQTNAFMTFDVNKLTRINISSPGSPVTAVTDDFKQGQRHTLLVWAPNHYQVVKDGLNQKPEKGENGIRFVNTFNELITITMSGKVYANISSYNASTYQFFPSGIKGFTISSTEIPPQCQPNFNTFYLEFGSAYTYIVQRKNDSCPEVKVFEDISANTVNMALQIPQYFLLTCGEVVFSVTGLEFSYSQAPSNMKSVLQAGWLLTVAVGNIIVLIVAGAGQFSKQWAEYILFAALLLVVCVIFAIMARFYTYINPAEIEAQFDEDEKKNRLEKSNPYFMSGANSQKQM

[2] = target: T1, Solute carrier family 15 member 1 (Homo sapiens); assay: TP_TRANSPORTER: inhibition of Gly-Sar uptake (Gly-Sar: 20 uM, L-dopa-L-Phe: 1000 uM) in Caco-2 cells; assay type: functional, cell-based

| SMILES | Activity [1] | Activity [2] |
| --- | --- | --- |
| N[C@@H](Cc1ccccc1)C(=O)N1CCC[C@@H]1C(=O)O | substrate [+] |  |
| N[C@@H](Cc1ccccc1)C(=O)N1CCC[C@H]1C(=O)O | substrate [+] |  |
| NC(=O)[C@H](Cc1ccccc1)NC(=O)[C@@H](N)Cc1ccccc1 (H-Phe-Phe-NH2) | substrate [+] |  |
| N[C@@H](Cc1ccc(O)c(O)c1)C(=O)N[C@@H](Cc1ccccc1)C(=O)O (H-[Dopa]-Phe-OH) | substrate [+] | inhibitor [20% (at a rough estimate) of control] |

Reference: ChEMBL document CHEMBL2074382, “Improvement of L-dopa absorption by dipeptidyl derivation, utilizing peptide transporter PepT1” (J Pharm Sci, 1998)
